According to patent US7138361B2, “Herbicidal heterocycles” (E. I. du Pont de Nemours and Company, priority 2000, dated 2006):

Experiments:
Type in all cases: in vivo
[1] = tested on: Surinam grass (Brachiaria decumbens); assay: Test B postemergence; settings: 13 to 15 days
In short: (§1)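 Ratings on a 0 to 100 visual scale (100 complete control) compare treated plants with controls 13 to 15 days after application. Treatments were pre- or postemergence sprays of compound in non-phytotoxic solvent with surfactant.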

[2] = tested on: barnyardgrass (Echinochloa crus-galli); assay: Test B postemergence; settings: 13 to 15 days
In short: as §1

[3] = tested on: blackgrass (Alopecurus myosuroides); assay: Test B postemergence; settings: 13 to 15 days
In short: as §1

[4] = tested on: cocklebur (Xanthium strumarium); assay: Test B postemergence; settings: 13 to 15 days
In short: as §1

[5] = tested on: corn (Zea mays); assay: Test B postemergence; settings: 13 to 15 days
In short: as §1

[6] = tested on: crabgrass (Digitaria sanguinalis); assay: Test B postemergence; settings: 13 to 15 days
In short: as §1

[7] = tested on: giant foxtail (Setaria faberii); assay: Test B postemergence; settings: 13 to 15 days
In short: as §1

[8] = tested on: lambsquarters (Chenopodium album); assay: Test B postemergence; settings: 13 to 15 days
In short: as §1

[9] = tested on: morning glory (Ipomoea hederacea); assay: Test B postemergence; settings: 13 to 15 days
In short: as §1

[10] = tested on: pigweed (Amaranthus retroflexus); assay: Test B postemergence; settings: 13 to 15 days
In short: as §1

[11] = tested on: velvetleaf (Abutilon theophrasti); assay: Test B postemergence; settings: 13 to 15 days
In short: as §1

[12] = tested on: wheat (Triticum aestivum); assay: Test B postemergence; settings: 13 to 15 days
In short: as §1

[13] = tested on: wild oat (Avena fatua); assay: Test B postemergence; settings: 13 to 15 days
In short: as §1

[14] = tested on: Surinam grass (Brachiaria decumbens); assay: Test B preemergence
In short: as §1

[15] = tested on: barnyardgrass (Echinochloa crus-galli); assay: Test B preemergence
In short: as §1

[16] = tested on: cocklebur (Xanthium strumarium); assay: Test B preemergence
In short: as §1

[17] = tested on: corn (Zea mays); assay: Test B preemergence
In short: as §1

[18] = tested on: crabgrass (Digitaria sanguinalis); assay: Test B preemergence
In short: as §1

[19] = tested on: giant foxtail (Setaria faberii); assay: Test B preemergence
In short: as §1

[20] = tested on: lambsquarters (Chenopodium album); assay: Test B preemergence
In short: as §1

[21] = tested on: morning glory (Ipomoea hederacea); assay: Test B preemergence
In short: as §1

[22] = tested on: pigweed (Amaranthus retroflexus); assay: Test B preemergence
In short: as §1

[23] = tested on: rice (Oryza saliva); assay: Test B preemergence
In short: as §1

[24] = tested on: velvetleaf (Abutilon theophrasti); assay: Test B preemergence
In short: as §1

[25] = tested on: smallflower flatsedge (Cyperus difformis); assay: Test C flooded paddy test; settings: for Flatsedge plant response rating: Flooded Paddy, scale 0 to 100, 0 no effect, 100 complete control; for Plant response rating, Flatsedge: flooded paddy test, scale 0 to 100 (0 no effect, 100 complete control)
In short: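 Visually assessed vs untreated controls 12–14 d post-treatment (greenhouse). Flooded paddy plants were at the 2-leaf stage; scale 0 = no effect, 100 = complete control.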

[26] = tested on: Sunflower; assay: Test C preemergence; settings: visual evaluation after 12 to 14 days
[27] = tested on: Sunflower; assay: Test C preemergence; settings: Rate 125 g/ha, scale 0 to 100, 0 no effect, 100 complete control
[28] = Rate 125 g/ha, scale 0 (no effect) to 100 (complete control)
[29] = Rate 500 g/ha, scale 0 to 100, 0 is no effect, 100 is complete control
[30] = Preemergence, Rate 500 g/ha, scale 0 to 100, 0 no effect, 100 complete control
[31] = preemergence, Rate 125 g/ha, scale of 0 to 100 where 0 is no effect and 100 is complete control, 13 to 15 days

CC(C)(C)c1ccn(C2CCN(c3ccc(Cl)c(Br)c3)C2=O)n1 (stereo not drawn) [Compound 56]
90: Plant response rating, Lambsquarters [8, 29] | Plant response rating, Pigweed [10, 28] | Plant response rating, Pigweed [10, 29] | Plant response rating, Foxtail, Giant [19, 30] | Flatsedge plant response rating ([25]; Rate 250 g/ha) | Flatsedge plant response rating ([25]; Rate 500 g/ha)
100: Plant response rating, Crabgrass [18, 30] | Plant response rating, Lambsquarters [20, 30] | Plant response rating, Lambsquarters [20, 31] | Plant response rating, Pigweed [22, 30] | Plant response rating, Pigweed [22, 31]
30: Plant response rating, Surinam grass [14, 30] | Plant response rating, Surinam grass [14, 31] | Plant response rating, Crabgrass [18, 31]
50: Plant response rating, Barnyardgrass [15, 30] | Plant response rating, Foxtail, Giant [19, 31]
10: Plant response rating, Morningglory [9, 29]
80: Plant response rating, Lambsquarters [8, 28] | Plant response rating, Flatsedge ([25]; Rate 62 g/ha) | Plant response rating, Flatsedge ([25]; Rate 125 g/ha)
0: Plant response rating, Surinam grass [1, 28] | Plant response rating, Surinam grass [1, 29] | Plant response rating, Barnyardgrass [2, 28] | Plant response rating, Barnyardgrass [2, 29] | Plant response rating, Blackgrass [3, 28] | Plant response rating, Blackgrass [3, 29] | Plant response rating, Cocklebur [4, 28] | Plant response rating, Cocklebur [4, 29] | Plant response rating, Corn [5, 28] | Plant response rating, Corn [5, 29] | Plant response rating, Crabgrass [6, 28] | Plant response rating, Crabgrass [6, 29] | Plant response rating, Foxtail, Giant [7, 28] | Plant response rating, Foxtail, Giant [7, 29] | Plant response rating, Morningglory [9, 28] | Plant response rating, Velvetleaf [11, 28] | Plant response rating, Velvetleaf [11, 29] | Plant response rating, Wheat [12, 28] | Plant response rating, Wheat [12, 29] | Plant response rating, Wild Oat [13, 28] | Plant response rating, Wild Oat [13, 29] | Plant response rating, Barnyardgrass [15, 31] | Plant response rating, Cocklebur [16, 31] | Plant response rating, Corn [17, 30] | Plant response rating, Corn [17, 31] | Plant response rating, Morningglory [21, 30] | Plant response rating, Morningglory [21, 31] | Plant response rating, Rice [23, 30] | Plant response rating, Rice [23, 31] | Plant response rating, Velvetleaf [24, 30] | Plant response rating, Velvetleaf [24, 31] | Plant response rating (0 to 100), Sunflower ([26]; Rate 250 g/ha) | Plant response rating, Sunflower [27]

CC1(c2ccn(C3OCN(c4cccc(C(F)(F)F)c4)C3=O)n2)CC1 (stereo not drawn) [Compound 62]
80: Plant response rating, Foxtail, Giant [19, 30]
30: Plant response rating, Rice [23, 30]
90: Plant response rating, Barnyardgrass [15, 30] | Plant response rating, Crabgrass [18, 30] | Flatsedge plant response rating ([25]; Rate 250 g/ha) | Plant response rating, Flatsedge ([25]; Rate 125 g/ha)
100: Plant response rating, Lambsquarters [20, 30] | Plant response rating, Lambsquarters [20, 31] | Plant response rating, Pigweed [22, 30] | Plant response rating, Pigweed [22, 31] | Flatsedge plant response rating ([25]; Rate 500 g/ha)
40: Plant response rating, Pigweed [10, 29]
60: Plant response rating, Lambsquarters [8, 29]
0: Plant response rating, Surinam grass [1, 28] | Plant response rating, Surinam grass [1, 29] | Plant response rating, Barnyardgrass [2, 28] | Plant response rating, Barnyardgrass [2, 29] | Plant response rating, Blackgrass [3, 28] | Plant response rating, Blackgrass [3, 29] | Plant response rating, Cocklebur [4, 28] | Plant response rating, Cocklebur [4, 29] | Plant response rating, Corn [5, 28] | Plant response rating, Corn [5, 29] | Plant response rating, Crabgrass [6, 28] | Plant response rating, Crabgrass [6, 29] | Plant response rating, Foxtail, Giant [7, 28] | Plant response rating, Foxtail, Giant [7, 29] | Plant response rating, Lambsquarters [8, 28] | Plant response rating, Morningglory [9, 28] | Plant response rating, Morningglory [9, 29] | Plant response rating, Pigweed [10, 28] | Plant response rating, Velvetleaf [11, 28] | Plant response rating, Velvetleaf [11, 29] | Plant response rating, Wheat [12, 28] | Plant response rating, Wheat [12, 29] | Plant response rating, Wild Oat [13, 28] | Plant response rating, Wild Oat [13, 29] | Plant response rating, Surinam grass [14, 30] | Plant response rating, Surinam grass [14, 31] | Plant response rating, Barnyardgrass [15, 31] | Plant response rating, Cocklebur [16, 30] | Plant response rating, Cocklebur [16, 31] | Plant response rating, Corn [17, 30] | Plant response rating, Corn [17, 31] | Plant response rating, Crabgrass [18, 31] | Plant response rating, Foxtail, Giant [19, 31] | Plant response rating, Morningglory [21, 30] | Plant response rating, Morningglory [21, 31] | Plant response rating, Rice [23, 31] | Plant response rating, Velvetleaf [24, 30] | Plant response rating, Velvetleaf [24, 31] | Plant response rating, Flatsedge ([25]; Rate 62 g/ha) | Plant response rating (0 to 100), Sunflower ([26]; Rate 250 g/ha) | Plant response rating (0 to 100), Sunflower ([26]; Rate 500 g/ha) | Plant response rating, Sunflower [27]
